ChEMBL document CHEMBL1135919, “Synthesis of photoreactive phosphatidic acid analogues displaying activatory properties on cyclic AMP-phosphodiesterases. Photoaffinity labeling of an isoform of phosphodiesterase” (J Med Chem, 2002)

These compounds were tested against T1, 3',5'-cyclic-AMP phosphodiesterase 4D (Rattus norvegicus, UniProt P14270) (assay: Activation of PDE4D3 (phosphodiesterase).).
T1 sequence (P14270 whole entry): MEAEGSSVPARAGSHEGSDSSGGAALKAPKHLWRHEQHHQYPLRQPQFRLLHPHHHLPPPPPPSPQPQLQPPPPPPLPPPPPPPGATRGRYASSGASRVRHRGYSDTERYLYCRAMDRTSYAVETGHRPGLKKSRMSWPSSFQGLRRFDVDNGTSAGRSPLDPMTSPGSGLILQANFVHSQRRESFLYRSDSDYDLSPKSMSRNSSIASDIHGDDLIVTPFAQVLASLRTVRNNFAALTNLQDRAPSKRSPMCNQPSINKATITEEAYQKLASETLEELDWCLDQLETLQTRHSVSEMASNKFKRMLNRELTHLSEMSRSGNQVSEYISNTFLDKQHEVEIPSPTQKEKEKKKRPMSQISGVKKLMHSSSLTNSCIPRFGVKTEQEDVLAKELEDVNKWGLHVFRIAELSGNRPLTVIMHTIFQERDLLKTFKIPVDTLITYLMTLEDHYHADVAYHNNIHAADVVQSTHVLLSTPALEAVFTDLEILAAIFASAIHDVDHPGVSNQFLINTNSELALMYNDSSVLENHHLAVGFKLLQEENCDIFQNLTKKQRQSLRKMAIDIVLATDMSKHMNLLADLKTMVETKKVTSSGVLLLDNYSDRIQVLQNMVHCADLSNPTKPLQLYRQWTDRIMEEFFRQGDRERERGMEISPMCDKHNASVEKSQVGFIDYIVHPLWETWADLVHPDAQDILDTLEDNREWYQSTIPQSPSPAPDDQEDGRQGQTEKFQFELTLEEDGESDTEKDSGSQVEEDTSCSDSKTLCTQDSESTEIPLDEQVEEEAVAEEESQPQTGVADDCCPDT
Type: functional

CCCCCCCCCCCCCCCC(=O)OCC(COP(=O)(O)O)OC(=O)CCCCCCCCCCCNC(=O)c1c(F)c(F)c(N=[N+]=[N-])c(F)c1F (stereo not drawn) and CCCCCCCC/C=C/CCCCCCCC(=O)OC(COC(=O)CCCCCCCCCCCNC(=O)c1c(F)c(F)c(N=[N+]=[N-])c(F)c1F)COP(=O)(O)O (stereo not drawn) are within 1.5-fold of each other in EC50: 24.2 µM for the first, 23.5 µM for the second.

CCCCCCCC/C=C/CCCCCCCC(=O)OCC(COP(=O)(O)O)OC(=O)CCCCCCCCCCCNC(=O)c1c(F)c(F)c(N=[N+]=[N-])c(F)c1F (stereo not drawn) showed an EC50 of 23.5 µM.
